Legend:
[1] = molecular target: T1, acetylcholinesterase (AChE) from electric eel (Electrophorus electricus, UniProt O42275); experiment: AChE inhibition, spectrophotometric Ellman's method; type: biochemical, Electrophorus electricus L.; conditions: for IC50: electric eel AChE, Ellman's method, mean ± SD (n = 3 experiments); for AChE inhibition, fold higher than RIV: IC50 compared with rivastigmine
T1 construct: purchased Sigma
Method: The ability of the tested compounds to inhibit acetylcholinesterase (purchased from Sigma) from electric eel (Electrophorus electricus L.) was tested. […] The IC50 values were determined by the spectrophotometric Ellman’s method.
The IC50 values were determined using the spectrophotometric Ellman’s method, which is a simple, rapid and direct method to determine the SH and -S-S- group content in proteins. This method is widely used for measuring of cholinesterase activity and effectivity of cholinesterase inhibitors. Cholinesterase activity is measured indirectly by quantifying the concentration of 5-thio-2-nitrobenzoic acid (TNB) ion formed in the reaction between the thiol reagent 5,5′-dithiobis-2-nitrobenzoic acid (DTNB) and thiocholine, a product of substrate (i.e., acetylthiocholine, ATCh) hydrolysis by cholinesterase. All tested compounds were dissolved in dioxane (concentration 0.01 M) and then diluted in demineralised water (concentration 0.001 M and 0.0001 M). The procedure of determination of IC50 is a slightly modified Ellman’s method according to Zdrazilova and described in detail in [49]. For determination of IC50 values the inhibition was determined for 25 different compound concentrations with three replicates.

[2] = Lipophilicity determination by RP-HPLC (capacity factor k / log k); type: physicochemical; conditions: Symmetry C18, MeOH 70% / H2O 30%, column 45 °C
Source text: A Waters Alliance 2695 XE HPLC separation module and a Waters Photodiode Array Detector 2996 (Waters Corp., Milford, MA, USA) were used. A Symmetry® C18 5 μm, 4.6 × 250 mm chromatographic column, Part No. WAT054275 (Waters Corp., Milford, MA, USA) was used. The HPLC separation process was monitored by Empower™ 2 Chromatography Data Software, Waters 2009 (Waters Corp., Milford, MA, USA). A mixture of MeOH p.a. (70%) and H2O-HPLC–Mili-Q Grade (30%) was used as a mobile phase. The total flow of the column was 1.0 mL/min, injection volume, 30 μL, column temperature, 45 °C and sample temperature, 10 °C. The detection wavelength of 210 nm was chosen. The KI methanolic solution was used for the dead time (tD) determination. The retention times (tR) were measured in minutes. The capacity factors k were calculated using the Empower™ 2 Chromatography Data Software according to formula k = (tR− tD)/tD, where tR is the retention time of the solute, whereas tD denotes the dead time obtained using an unretained analyte. Log k, calculated from the capacity factor k, is used as the lipophilicity index converted to log P scale.

T1 sequence (O42275 24-633): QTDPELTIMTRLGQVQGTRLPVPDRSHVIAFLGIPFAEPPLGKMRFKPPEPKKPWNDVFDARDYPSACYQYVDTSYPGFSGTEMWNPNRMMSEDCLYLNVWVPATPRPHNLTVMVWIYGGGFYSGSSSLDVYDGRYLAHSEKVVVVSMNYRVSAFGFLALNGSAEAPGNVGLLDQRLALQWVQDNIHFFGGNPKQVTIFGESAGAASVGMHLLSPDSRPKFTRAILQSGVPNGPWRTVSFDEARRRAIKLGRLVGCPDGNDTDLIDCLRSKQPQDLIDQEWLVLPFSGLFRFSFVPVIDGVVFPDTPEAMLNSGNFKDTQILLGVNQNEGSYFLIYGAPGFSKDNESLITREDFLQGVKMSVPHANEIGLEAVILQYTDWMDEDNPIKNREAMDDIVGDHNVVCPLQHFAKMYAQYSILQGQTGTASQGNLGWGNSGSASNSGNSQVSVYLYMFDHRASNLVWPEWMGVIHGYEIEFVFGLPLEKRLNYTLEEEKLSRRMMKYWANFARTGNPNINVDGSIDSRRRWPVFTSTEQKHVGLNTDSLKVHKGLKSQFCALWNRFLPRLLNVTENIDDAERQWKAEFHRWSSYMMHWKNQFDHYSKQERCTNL

Compound	IC50 [1] [µM]	log k [2]	AChE inhibition, fold higher than RIV [1] [fold]
CCCCCNC(=O)Oc1ccc(Cl)cc1C(=O)Nc1ccc(Cl)cc1 [5c]	41.7 ± 0.29	0.7838	
CCCCCCCNC(=O)Oc1ccc(Cl)cc1C(=O)Nc1ccc(Cl)c(Cl)c1 [6e]	36.7 ± 0.28	1.0667	
CCCCCNC(=O)Oc1ccc(Cl)cc1C(=O)Nc1ccc(Cl)c(Cl)c1 [6c]	56 ± 0.42	1.0601	
CCNC(=O)Oc1ccc(Cl)cc1C(=O)Nc1cccc(Cl)c1 [4a]		0.7523	
CCCCCCCCCNC(=O)Oc1ccc(Cl)cc1C(=O)Nc1ccc(Cl)cc1 [5g]	52.2 ± 0.39	0.7919	
CCCCNC(=O)Oc1ccc(Cl)cc1C(=O)Nc1ccc(Cl)cc1 [5b]	48.1 ± 0.31	0.7759	
CCCCCCCCCNC(=O)Oc1ccc(Cl)cc1C(=O)Nc1cccc(Cl)c1 [4g]	34.2 ± 0.26	0.7837	
CCCCCCNC(=O)Oc1ccc(Cl)cc1C(=O)Nc1cccc(Cl)c1 [4d]	35.1 ± 0.31	0.7758	
CCCCCCCCCCNC(=O)Oc1ccc(Cl)cc1C(=O)Nc1ccc(Cl)c(Cl)c1 [6h]	21.8 ± 0.2	1.0894	23
CCCCNC(=O)Oc1ccc(Cl)cc1C(=O)Nc1cccc(Cl)c1 [4b]		0.7611	
CCCCCCNC(=O)Oc1ccc(Cl)cc1C(=O)Nc1ccc(Cl)cc1 [5d]	31 ± 0.29	0.7859	
CCCCCCCNC(=O)Oc1ccc(Cl)cc1C(=O)Nc1ccc(Cl)cc1 [5e]	49.4 ± 0.31	0.7872	
CCCCCCCCCCCNC(=O)Oc1ccc(Cl)cc1C(=O)Nc1ccc(Cl)c(Cl)c1 [6i]	29.9 ± 0.22	1.0903	16
CCCCNC(=O)Oc1ccc(Cl)cc1C(=O)Nc1ccc(Cl)c(Cl)c1 [6b]	64.7 ± 0.79	1.0457	
CCCCCNC(=O)Oc1ccc(Cl)cc1C(=O)Nc1cccc(Cl)c1 [4c]	50.4 ± 0.48	0.7732	
CCCCCCCCNC(=O)Oc1ccc(Cl)cc1C(=O)Nc1cccc(Cl)c1 [4f]	69.9 ± 0.49	0.7831	
CCCCCCCCNC(=O)Oc1ccc(Cl)cc1C(=O)Nc1ccc(Cl)cc1 [5f]	62.5 ± 0.41	0.7899	
CCNC(=O)Oc1ccc(Cl)cc1C(=O)Nc1ccc(Cl)cc1 [5a]	59.1 ± 0.33	0.7695	
CCCCCCCCCCNC(=O)Oc1ccc(Cl)cc1C(=O)Nc1ccc(Cl)cc1 [5h]	64.6 ± 0.41	0.7942	
CCCCCCCCNC(=O)Oc1ccc(Cl)cc1C(=O)Nc1ccc(Cl)c(Cl)c1 [6f]	32.1 ± 0.29	1.0845	
CCCCCCCCCNC(=O)Oc1ccc(Cl)cc1C(=O)Nc1ccc(Cl)c(Cl)c1 [6g]	43.9 ± 0.32	1.0880	
CCNC(=O)Oc1ccc(Cl)cc1C(=O)Nc1ccc(Cl)c(Cl)c1 [6a]	67.3 ± 0.52	1.0234	
CCCCCCCCCCCNC(=O)Oc1ccc(Cl)cc1C(=O)Nc1ccc(Cl)cc1 [5i]	44.3 ± 0.33	0.7947	
CCCCCCCNC(=O)Oc1ccc(Cl)cc1C(=O)Nc1cccc(Cl)c1 [4e]	61.7 ± 0.5	0.7772	
CCCCCCNC(=O)Oc1ccc(Cl)cc1C(=O)Nc1ccc(Cl)c(Cl)c1 [6d]	41.2 ± 0.36	1.0611	
CCCCCCCCCCCNC(=O)Oc1ccc(Cl)cc1C(=O)Nc1cccc(Cl)c1 [4i]	56.9 ± 0.48	0.7902	
CCCCCCCCCCNC(=O)Oc1ccc(Cl)cc1C(=O)Nc1cccc(Cl)c1 [4h]	52.7 ± 0.45	0.7873	
